pIC50: −log10 of the molar value.
Experiments:
[1] = molecular target: T1, human MetAP2 enzyme (Homo sapiens, UniProt P50579); assay: MetAP2 enzyme assay, enzyme complexed with cobalt ions; conditions: MetAP2 Co pIC50, MetAP2 enzyme complexed with cobalt ions; Met-AMC substrate at Km
[2] = molecular target: T1, human MetAP2 enzyme; assay: MetAP2 enzyme assay, enzyme complexed with manganese ions; conditions: MetAP2 Mn pIC50, MetAP2 enzyme complexed with manganese ions; Met-AMC substrate at Km

T1 sequence (P50579 whole entry): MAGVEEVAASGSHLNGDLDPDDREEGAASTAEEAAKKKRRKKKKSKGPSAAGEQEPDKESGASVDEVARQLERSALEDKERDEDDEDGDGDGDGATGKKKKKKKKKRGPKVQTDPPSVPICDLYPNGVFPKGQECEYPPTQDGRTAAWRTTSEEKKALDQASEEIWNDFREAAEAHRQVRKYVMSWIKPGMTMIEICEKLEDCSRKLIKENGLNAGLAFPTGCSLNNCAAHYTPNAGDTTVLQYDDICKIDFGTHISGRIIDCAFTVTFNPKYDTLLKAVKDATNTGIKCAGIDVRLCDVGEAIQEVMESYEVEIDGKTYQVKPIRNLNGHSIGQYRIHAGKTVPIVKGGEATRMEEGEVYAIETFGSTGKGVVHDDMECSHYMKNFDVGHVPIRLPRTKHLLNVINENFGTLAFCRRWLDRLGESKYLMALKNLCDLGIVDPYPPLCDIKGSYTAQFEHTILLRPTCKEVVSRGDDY

| Compound | pIC50 [1] | pIC50 [2] |
| --- | --- | --- |
| COCc1ccc(-c2cc(C(F)(F)F)cc3[nH]ncc23)cc1 [Example 48, 4-(4-(methoxymethyl)phenyl)-6-(trifluoromethyl)-1H-indazole] | 7.30 | 8.30 |
| FC(F)(F)c1cc(-c2ccncc2Cl)c2cn[nH]c2c1 [Example 49, 4-(3-chloropyridin-4-yl)-6-(trifluoromethyl)-1H-indazole] | 6.70 | 7.80 |
| Cc1ncccc1-c1cc(C(F)(F)F)cc2[nH]ncc12 [Example 50, 4-(2-methylpyridin-3-yl)-6-(trifluoromethyl)-1H-indazole] | 7.50 | 8.30 |
| Cn1c(-c2cc(C(F)(F)F)cc3[nH]ncc23)cc2ccccc21 [Example 51, 4-(1-methyl-1H-indol-2-yl)-6-(trifluoromethyl)-1H-indazole] | 5.60 | 7.00 |
| N#Cc1ccccc1-c1cc(C(F)(F)F)cc2[nH]ncc12 [Example 52, 2-(6-(trifluoromethyl)-1H-indazol-4-yl)benzonitrile] | 6.90 | 7.90 |
| COc1ncccc1-c1cc(C(F)(F)F)cc2[nH]ncc12 [Example 53, 4-(2-methoxypyridin-3-yl)-6-(trifluoromethyl)-1H-indazole] | 7.40 | 8.30 |
| O=c1[nH]cc(-c2cc(C(F)(F)F)cc3[nH]ncc23)c(=O)[nH]1 [Example 54, 5-(6-(trifluoromethyl)-1H-indazol-4-yl)pyrimidine-2,4(1H,3H)-dione] | 6.40 | 8.20 |
| CS(=O)(=O)Nc1ccc(-c2cc(C(F)(F)F)cc3[nH]ncc23)cc1 [Example 56, N-(4-(6-(trifluoromethyl)-1H-indazol-4-yl)phenyl)methanesulfonamide] | 7.40 | 7.90 |
| FC(F)(F)c1cc(-c2cccc(N3CCOCC3)c2)c2cn[nH]c2c1 [Example 57, 4-(3-(6-(trifluoromethyl)-1H-indazol-4-yl)phenyl)morpholine] | 7.20 | 7.60 |
| FC(F)(F)c1cc(-c2ccc(OCC3CC3)nc2)c2cn[nH]c2c1 [Example 58, 4-(6-(cyclopropylmethoxy)pyridin-3-yl)-6-(trifluoromethyl)-1H-indazole] | 6.90 | 7.90 |
| FC(F)(F)c1cc(-c2cnc3[nH]ccc3c2)c2cn[nH]c2c1 [Example 59, 4-(1H-pyrrolo[2,3-b]pyridin-5-yl)-6-(trifluoromethyl)-1H-indazole] | 7.10 | 7.90 |
| FC(F)(F)c1cc(-c2csc(N3CCOCC3)n2)c2cn[nH]c2c1 [Example 60, 4-(4-(6-(trifluoromethyl)-1H-indazol-4-yl)thiazol-2-yl)morpholine] | 6.00 | 7.30 |
| FC(F)(F)c1cc(-c2cccc(-c3cc[nH]n3)c2)c2cn[nH]c2c1 [Example 61, 4-(3-(1H-pyrazol-3-yl)phenyl)-6-(trifluoromethyl)-1H-indazole] | 6.80 | 7.40 |
| FC(F)(F)c1cc(-c2ccc(-c3ccn[nH]3)cc2)c2cn[nH]c2c1 [Example 62, 4-(4-(1H-pyrazol-5-yl)phenyl)-6-(trifluoromethyl)-1H-indazole] | 7.00 | 7.90 |
| NC(=O)c1cc(-c2cc(C(F)(F)F)cc3[nH]ncc23)ccc1Cl [Example 63, 2-chloro-5-(6-(trifluoromethyl)-1H-indazol-4-yl)benzamide] | 7.20 | 7.80 |
| Cn1cnc2ccc(-c3cc(C(F)(F)F)cc4[nH]ncc34)cc21 [Example 64, 4-(1-methyl-1H-benzo[d]imidazol-6-yl)-6-(trifluoromethyl)-1H-indazole] | 7.50 | 8.00 |
| Fc1c(-c2cc(C(F)(F)F)cc3[nH]ncc23)ccnc1N1CCOCC1 [Example 65, 4-(3-fluoro-4-(6-(trifluoromethyl)-1H-indazol-4-yl)pyridin-2-yl)morpholine] | 7.80 | 7.90 |
| Fc1cnc2[nH]ccc2c1-c1cc(C(F)(F)F)cc2[nH]ncc12 [Example 66, 4-(5-fluoro-1H-pyrrolo[2,3-b]pyridin-4-yl)-6-(trifluoromethyl)-1H-indazole] | 7.10 | 7.80 |
| FC(F)(F)c1cc(-c2cccc(-n3cccn3)c2)c2cn[nH]c2c1 [Example 69, 4-(3-(1H-pyrazol-1-yl)phenyl)-6-(trifluoromethyl)-1H-indazole] | 6.80 | 8.20 |
| FC(F)(F)c1cc(-c2cnn(Cc3ccccn3)c2)c2cn[nH]c2c1 [Example 72, 4-(1-(pyridin-2-ylmethyl)-1H-pyrazol-4-yl)-6-(trifluoromethyl)-1H-indazole] | 7.60 | 8.60 |
| CC(C)(C)C(=O)Nc1ncccc1-c1cc(C(F)(F)F)cc2[nH]ncc12 [Example 73, N-(3-(6-(trifluoromethyl)-1H-indazol-4-yl)pyridin-2-yl)pivalamide] | 6.70 | 7.10 |
| FC(F)(F)c1cc(-c2cnn(CCN3CCOCC3)c2)c2cn[nH]c2c1 [Example 74, 4-(2-(4-(6-(trifluoromethyl)-1H-indazol-4-yl)-1H-pyrazol-1-yl)ethyl)morpholine] | 7.30 | 8.40 |
| N#Cc1cc(F)ccc1-c1cc(C(F)(F)F)cc2[nH]ncc12 [Example 75, 5-fluoro-2-(6-(trifluoromethyl)-1H-indazol-4-yl)benzonitrile] | 6.80 | 8.10 |
| FC(F)(F)c1cc(-c2cccc3cc[nH]c23)c2cn[nH]c2c1 [Example 76, 4-(1H-indol-7-yl)-6-(trifluoromethyl)-1H-indazole] | 6.40 | 7.40 |
| Cn1ccc2c(-c3cc(C(F)(F)F)cc4[nH]ncc34)cccc21 [Example 77, 4-(1-methyl-1H-indol-4-yl)-6-(trifluoromethyl)-1H-indazole] | 7.10 | 8.20 |
| Nc1ncccc1-c1cc(C(F)(F)F)cc2[nH]ncc12 [Example 78, 3-(6-(trifluoromethyl)-1H-indazol-4-yl)pyridin-2-amine] | 7.00 | 8.30 |

Other lines, results leading:

| pIC50 [1] | pIC50 [2] | Compound |
| --- | --- | --- |
| 7.60 | 8.00 | Cc1c(-c2cc(C(F)(F)F)cc3[nH]ncc23)cnn1C [Example 79, 4-(1,5-dimethyl-1H-pyrazol-4-yl)-6-(trifluoromethyl)-1H-indazole] |
| 7.10 | 8.10 | Cc1noc(C)c1-c1cc(C(F)(F)F)cc2[nH]ncc12 [Example 80, 3,5-dimethyl-4-(6-(trifluoromethyl)-1H-indazol-4-yl)isoxazole] |
| 7.40 | 7.80 | FC(F)(F)c1cc(-c2cccc3[nH]ccc23)c2cn[nH]c2c1 [Example 81, 4-(1H-indol-4-yl)-6-(trifluoromethyl)-1H-indazole] |
| 6.30 | 8.00 | Cn1cc(-c2cc(C(F)(F)F)cc3[nH]ncc23)c(=O)n(C)c1=O [Example 82, 1,3-dimethyl-5-(6-(trifluoromethyl)-1H-indazol-4-yl)pyrimidine-2,4(1H,3H)-dione] |
| 7.40 | 7.70 | Cc1n[nH]c(C)c1-c1cc(C(F)(F)F)cc2[nH]ncc12 [Example 83, 4-(3,5-dimethyl-1H-pyrazol-4-yl)-6-(trifluoromethyl)-1H-indazole] |
| 7.70 | 8.50 | CN1CCN(C(=O)c2cccc(-c3cc(C(F)(F)F)cc4[nH]ncc34)c2)CC1 [Example 84, (4-methylpiperazin-1-yl)(3-(6-(trifluoromethyl)-1H-indazol-4-yl)phenyl)methanone] |
| 7.10 | 8.20 | O=C(c1cccc(-c2cc(C(F)(F)F)cc3[nH]ncc23)c1)N1CCCC1 [Example 85, pyrrolidin-1-yl(3-(6-(trifluoromethyl)-1H-indazol-4-yl)phenyl)methanone] |
| 7.80 | 8.50 | COc1ccc(OC)c(-c2cc(C(F)(F)F)cc3[nH]ncc23)c1 [Example 86, 4-(2,5-dimethoxyphenyl)-6-(trifluoromethyl)-1H-indazole] |
| 6.90 | 8.10 | COc1cccc(-c2cc(C(F)(F)F)cc3[nH]ncc23)c1OC [Example 87, 4-(2,3-dimethoxyphenyl)-6-(trifluoromethyl)-1H-indazole] |
| 7.10 | 8.40 | CCNC(=O)c1cccc(-c2cc(C(F)(F)F)cc3[nH]ncc23)c1 [Example 88, N-ethyl-3-(6-(trifluoromethyl)-1H-indazol-4-yl)benzamide] |
| 7.70 | 8.40 | FC(F)(F)c1cc(-c2ccc(N3CCOCC3)nc2)c2cn[nH]c2c1 [Example 89, 4-(5-(6-(trifluoromethyl)-1H-indazol-4-yl)pyridin-2-yl)morpholine] |
| 7.50 | 8.50 | N#CCc1cccc(-c2cc(C(F)(F)F)cc3[nH]ncc23)c1 [Example 90, 2-(3-(6-(trifluoromethyl)-1H-indazol-4-yl)phenyl)acetonitrile] |
| 6.70 | 8.20 | COc1cccc(-c2cc(C(F)(F)F)cc3[nH]ncc23)n1 [Example 91, 4-(6-methoxypyridin-2-yl)-6-(trifluoromethyl)-1H-indazole] |
| 7.30 | 8.40 | CNC(=O)c1ccc(-c2cc(C(F)(F)F)cc3[nH]ncc23)cc1F [Example 92, 2-fluoro-N-methyl-4-(6-(trifluoromethyl)-1H-indazol-4-yl)benzamide] |
| 7.30 | 8.00 | N#CCOc1ccccc1-c1cc(C(F)(F)F)cc2[nH]ncc12 [Example 93, 2-(2-(6-(trifluoromethyl)-1H-indazol-4-yl)phenoxy)acetonitrile] |
| 7.20 | 8.50 | FC(F)(F)c1cc(-c2cnc(N3CCOCC3)cn2)c2cn[nH]c2c1 [Example 94, 4-(5-(6-(trifluoromethyl)-1H-indazol-4-yl)pyrazin-2-yl)morpholine] |
| 7.70 | 8.50 | CS(=O)(=O)NCc1ccc(-c2cc(C(F)(F)F)cc3[nH]ncc23)cc1 [Example 95, N-(4-(6-(trifluoromethyl)-1H-indazol-4-yl)benzyl)methanesulfonamide] |
